Reference: US7786152B2, “Compound” (priority 2002, dated 2010)

How the values were obtained:
11 β-HSD type 2 = molecular target: T1, 11 β-HSD type 2 (Rattus norvegicus, UniProt P50233); assay: 11 β-HSD type 2 inhibition, rat kidney homogenate, conversion F to E (radiometric TLC); format: biochemical; details: read-out: % inhibition of 11β HSD2 @ 10 μM, typical sd ± 5%, means n=2
T1 construct: Both the kidneys and livers were homogenised on ice in PBS-sucrose buffer; tissue Harlan Olac (rats); host or cells: Wistar rat kidney homogenate supernatant
T1 sequence (P50233 1-400): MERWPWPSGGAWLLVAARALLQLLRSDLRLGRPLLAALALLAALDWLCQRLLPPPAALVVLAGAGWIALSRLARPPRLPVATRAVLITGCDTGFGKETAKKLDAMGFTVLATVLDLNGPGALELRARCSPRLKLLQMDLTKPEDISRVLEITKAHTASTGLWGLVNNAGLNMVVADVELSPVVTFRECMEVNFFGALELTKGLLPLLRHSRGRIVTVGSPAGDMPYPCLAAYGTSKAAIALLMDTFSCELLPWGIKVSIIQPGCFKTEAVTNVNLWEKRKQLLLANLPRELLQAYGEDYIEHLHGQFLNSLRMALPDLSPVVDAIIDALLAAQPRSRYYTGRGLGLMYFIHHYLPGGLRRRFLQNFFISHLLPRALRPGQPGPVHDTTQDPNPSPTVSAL
Protocol: (§1) Enzymes—Rat livers and rat kidneys were obtained from normal Wistar rats (Harlan Olac, Bicester, Oxon, UK). Both the kidneys and livers were homogenised on ice in PBS-sucrose buffer (1 g/10 ml) using an Ultra-Turrax. After the livers and kidneys were homogenised the homogenate was centrifuged for five minutes at 4000 rpm. The supernatant obtained was removed and stored in glass vials at −20° C. The amount of protein per μl of rat liver and kidney cytosol was determined using the Bradford method.
The same procedure was used for the 11 β-HSD type 2 assay, the conversion F to E, to determine the amount of rat kidney to be used and the incubation time. Except this time the substrate solution contained ^3H—F and unlabelled F and the recovery contained ^14C-E and unlabelled E and cortisone has a Rf value of 0.65 on the TLC-plate.
(§2) In these assays the influence of different inhibitors on the 11 β-HSD activity both in reductive (type 1) and oxidative (type 2) directions were assessed. In the reductive direction E is the substrate and F the product and visa versa in the case of oxidation. The method described here is for the oxidative direction.
The substrate solution contained about 50,000 cpm/ml ^3H—F in PBS-sucrose and 0.5 μM F. 1 ml of the substrate solution was added to each tube, the inhibitors were also added, at a 10 μM concentration, to each tube except to the “control” and “blank” tubes. 150 μL was added to all tubes except to the blanks, this was done to correct for the amount of ^3H—F spontaneously formed. The tubes were incubated for 60 minutes in a mechanically shaken water bath at 37° C. The amount of kidney liver homogenate and incubation time used resulted from the enzyme- and time-dependency assay. After incubation 50 μL of recovery was added to correct for the losses made in the next steps, containing 5000 cpm/50 μL of ^14C-E and 50 μg/50 μL of unlabelled E (to visualise the spot on the TLC-plate). The aqueous mixture was then extracted with 4 ml of ether (2×30 sec cycle, vortex mix). After freezing the aqueous phase, the ether (upper) layer was decanted into smaller tubes and evaporated at 45° C. until completely dry. The residue was then re-dissolved in 6 drops of ether and transferred to a TLC-plate. The TLC-plate was developed in chloroform:methanol (9:1 v/v) solvent system, the TLC-plate ran for about 90 minutes until the solvent front had moved about 18 cm. The position of the product E was visualised under UV-light and cut out from the TLC-plate and put into scintillation vials. Radioactivity was eluted over 5 minutes with 0.5 ml methanol. 0.5 ml of PBS-sucrose and 10 ml of Ecoscint were then added and vortex mixed before counting in the scintillation counter. Before counting the samples, two total activity vials were prepared. These contained 0.5 ml of the substrate solution, 50 μL of the recovery, 0.5 ml of methanol and 10 ml of Ecoscint. These two total activity vials were needed to determine the amount of ^14C-E and ^3H—F added in the beginning to make the calculations.
To look at the percentage of inhibition four different concentrations, 1, 5, 10 and 20 μM, were used. The method for both the rat liver, type 1 the reductive, and rat kidney, type 2 the oxidative, stay the same throughout the entire experiment.
In this experiment the amount of rat liver homogenate and rat kidney homogenate added to each tube and the incubation time was determined. […] After drawing the graphs the optimal amount of rat liver cytosol and rat kidney cytosol and both their incubation times were selected. One important rule when selecting both variables, to select an amount of rat liver and rat kidney and incubation time on a linear part of the graph. This is done to avoid fluctuations in enzyme activity. The amount of rat liver cytosol selected was 25 μL and 90 minutes of incubation time, the amount of rat kidney cytosol selected was 150 μL and 60 minutes of incubation time. […]

11 β-HSD type 1 = molecular target: T2, 11 β-HSD type 1 (Rattus norvegicus, UniProt P16232); assay: 11 β-HSD type 1 inhibition, rat liver homogenate, conversion E to F (radiometric TLC); format: biochemical; details: read-out: % inhibition of 11β HSD1 @ 10 μM, 10 μM, typical sd ± 5%, means n=2
T2 construct: Both the kidneys and livers were homogenised on ice in PBS-sucrose buffer; tissue Harlan Olac (rats); host or cells: Wistar rat liver homogenate supernatant
T2 sequence (P16232 whole entry): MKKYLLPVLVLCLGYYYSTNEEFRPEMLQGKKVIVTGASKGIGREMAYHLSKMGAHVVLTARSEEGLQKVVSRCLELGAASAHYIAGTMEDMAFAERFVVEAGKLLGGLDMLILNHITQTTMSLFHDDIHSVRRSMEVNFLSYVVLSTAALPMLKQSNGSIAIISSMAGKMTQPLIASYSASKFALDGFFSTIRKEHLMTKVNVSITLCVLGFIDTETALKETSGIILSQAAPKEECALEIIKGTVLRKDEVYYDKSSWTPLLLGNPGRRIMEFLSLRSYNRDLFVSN
Protocol: as §1
11 β-HSD type 1 is the enzyme responsible for the conversion E to F and this type of enzyme is present in rat liver. The substrate solution used in this assay contained 70,000 cpm/ml ^3H-E in PBS-sucrose and 0.5 μM of unlabelled E and co-factor NADPH (9 mg/10 ml of substrate solution). 1 ml of the substrate solution and the different amounts of rat liver homogenate was added to all tubes.
The amount of rat liver homogenate needed for an assay was determined by incubating the substrate solution with 25, 50, 100 and 150 μl for 30, 60, 90 and 120 minutes at 37° C. in a water bath with the tubes being mechanically shaken. After the incubation 50 μL of recovery solution was added, containing about 8,000 cpm/50 μL of ^14C—F and 50 μg/50 μL of unlabelled F for visualising the spot on the TLC-plate, to correct for the losses made in the next two steps. F was then extracted from the aqueous phase with 4 ml of ether (2×30 sec cycle, vortex mix). The aqueous phase was then frozen using dry-ice and the organic layer was decanted and poured into smaller tubes and evaporated. 6 drops of ether were then added to the small tubes to re-dissolve the residue which was transferred to an aluminium thin layer chromatography plate (TLC-plate). The TLC-plate was developed in a TLC tank under saturated conditions. The solvent system used was chloroform:methanol 9:1 (v/v). The F spots on the TLC-plate were visualised under UV-light and cut out from the TLC-plate (Rf=0.45). The spots from the TLC-plate were then put into scintillation vials and 0.5 ml of methanol was added to all vials to elute the radioactivity from the TLC-plate for 5 minutes. 10 ml of Ecoscint was added to the scintillation vials and they were put into the scintillation counter to count amount of product formed.
as §2
The substrate solution contained about 50,000 cpm/ml ^3H—F in PBS-sucrose and 0.5 μM F. 1 ml of the substrate solution was added to each tube, the inhibitors were also added, at a 10 μM concentration, to each tube except to the “control” and “blank” tubes. 150 μL was added to all tubes except to the blanks, this was done to correct for the amount of ^3H—F spontaneously formed. The tubes were incubated for 60 minutes in a mechanically shaken water bath at 37° C. The amount of kidney liver homogenate and incubation time used resulted from the enzyme- and time-dependency assay. After incubation 50 μL of recovery was added to correct for the losses made in the next steps, containing 5000 cpm/50 μL of ^14C-E and 50 μg/50 μL of unlabelled E (to visualise the spot on the TLC-plate). The aqueous mixture was then extracted with 4 ml of ether (2×30 sec cycle, vortex mix). After freezing the aqueous phase, the ether (upper) layer was decanted into smaller tubes and evaporated at 45° C. until completely dry. The residue was then re-dissolved in 6 drops of ether and transferred to a TLC-plate. The TLC-plate was developed in chloroform:methanol (9:1 v/v) solvent system, the TLC-plate ran for about 90 minutes until the solvent front had moved about 18 cm. The position of the product E was visualised under UV-light and cut out from the TLC-plate and put into scintillation vials. […]

SMILES	inhibition at 10 µM (11 β-HSD type 2) [%]	inhibition at 10 µM (11 β-HSD type 1) [%]	melting point [°C]
Cc1nc2cc(N(S(=O)(=O)c3ccccc3C#N)S(=O)(=O)c3ccccc3C#N)ccc2s1 [compound 731]	12	45	–
Cc1c(Cl)cccc1S(=O)(=O)Nc1ccc2nc(C)n(C)c2c1	–	–	265 to 266
Cc1nc2cc(NS(=O)(=O)c3c(F)c(F)c(F)c(F)c3F)ccc2s1 [compound 712]	3	24	–
Cc1nc2cc(NS(=O)(=O)c3c(C)c(C)cc(C)c3C)ccc2s1 [compound 706]	7	29	–
Cc1c(Cl)cccc1S(=O)(=O)Nc1ccc2[nH]c(=O)sc2c1 [compound 753]	2	8	–
CCN(CC)C(=O)CSc1nc2ccc(NS(=O)(=O)c3cccc(Cl)c3C)cc2s1 [compound 755]	8	21	–
CC(=O)c1ccccc1S(=O)(=O)N(c1ccc2sc(C)nc2c1)S(=O)(=O)c1ccccc1C(C)=O [compound 730]	9	32	–
CC(=O)Nc1ccc(S(=O)(=O)Nc2ccc3sc(C)nc3c2)cc1 [compound 711]	6	37	–
Cc1nc2cc(NS(=O)(=O)c3c(C)c(C)c4c(c3C)CCC(C)(C)O4)ccc2s1 [compound 713]	3	26	–
Cc1c(Cl)cccc1S(=O)(=O)Nc1ccc2ncsc2c1 [compound 750]	10	4	–
Cc1c(Cl)cccc1S(=O)(=O)Nc1ccc2c(c1)nc(C)n2CCO	–	–	245 to 247
Cc1c(Cl)cccc1S(=O)(=O)Nc1ccc2nc(C)n(CCO)c2c1	–	–	213 to 214.5
COc1ccc(S(=O)(=O)Nc2ccc3sc(C)nc3c2)cc1OC [compound 707]	11	21	–
COCCSc1nc2ccc(NS(=O)(=O)c3cccc(Cl)c3C)cc2s1 [compound 754]	6	20	–
Cc1c(Cl)cccc1S(=O)(=O)Nc1ccc2c(c1)nc(C)n2-c1ccccc1	–	–	254 to 256
CCOC(=O)CSc1nc2ccc(NS(=O)(=O)c3cccc(Cl)c3C)cc2s1 [compound 752]	1	5	–
